A melting point compilation (Tetko et al.; mined from patent text by program, amines drawn as free bases though some values may be those of a salt)
Residues, ends and D or L forms follow the SMILES beside them. *: point of attachment. Propionyl = CCC(=O)*; NHPh = c1ccc(N*)cc1

Row | melting point | SMILES
1 | 52 °C | CCOCCOc1ccc(CCNC(=O)/C=C/c2cccs2)cc1S(N)(=O)=O
2 | 113 to 115 °C | CC(C)Cn1c(CCCCNC(=O)Nc2ccccc2)nc2c(N)nc3ccccc3c21
3 | 206 to 207 °C | Cc1n[nH]c(=O)n1-c1ccc(OCC(F)(F)C(F)F)cc1
4 | 173 to 175 °C | COc1ccc(C(=O)c2csc(S(N)(=O)=O)c2)cc1
5 | 103 to 105 °C | COc1ccc(C(=O)Oc2ccccc2)nc1C
6 | 145 to 147 °C | CC(S)C(O)(Cn1cncn1)c1ccc(F)cc1F (configuration not stated)
7 | 180 to 183 °C | CCOC(=O)C1=C(C)NC(c2cscn2)=NC1c1cccc(O)c1 (configuration not stated)
8 | 63 to 64 °C | Cc1nsc(OCC(F)(F)F)c1[N+](=O)[O-]
9 | 195 to 197 °C | O=C(Nc1cc2ccccc2oc1=O)c1ccccc1NCc1ccncc1
10 | 232 to 233 °C | Oc1[nH]nc2c1-c1ccc(Cl)cc1CC2
11 | 257 to 260 °C | O=C(Nc1ccc(C(=O)N2Cc3cccn3Cc3ccccc32)cc1)c1ccccc1F
12 | 115 to 118 °C | COC(=O)Cc1ccc(-c2ccc(O)cc2)c(F)c1
13 | 94 to 95 °C | COC(=O)CCC(=O)c1ccc(-c2ccc(Br)cc2F)cc1
14 | 166 to 167 °C | COc1ccccc1S(=O)(=O)N(C)c1cccc2cc(C3=NCC(CC(=O)N4CCC(O)CC4)S3)[nH]c12 (configuration not stated)
15 | 162 to 165 °C | CS(=O)(=O)NCc1ccc2[nH]cc(CCN3C(=O)c4ccccc4C3=O)c2c1
16 | 281 to 284 °C | CCC(=O)N[C@@H](C)C(=O)N[C@@H](C)C(=O)Nc1ccccc1 (Propionyl-Ala-Ala-NHPh)
17 | 176 to 177 °C | Cc1oc(-c2ccccc2Cl)nc1CCOc1ccc(CC2SC(=O)NC2=O)cn1 (configuration not stated)
18 | 174 to 181 °C | CC(=O)Nc1cc(N(C)C)ccc1C(=O)c1ccccc1C(=O)O
19 | 243 to 244 °C | Cc1c(Cl)cc(C(C)(C)C)c(O)c1-c1nc2cc(OC(F)(F)F)ccc2[nH]1
20 | 107 to 109 °C | Cc1c(CNC2CCCC2)[nH]c2c(C)c(NC(=O)c3ccc(OC[C@@H]4CCCO4)cc3)ccc12
21 | 200 °C | COc1ccc(C2CSc3ccccc3NC2=O)cc1Br (configuration not stated)

Row | melting point | SMILES
22 | 208 to 210 °C | COC(=O)Cc1cc(=O)[nH]c2cc(Br)ccc12
23 | 170 to 174 °C | O=C(O)c1cc2cc(Cl)ccc2nc1NC(Cc1c[nH]c2cc(F)ccc12)C(=O)O (configuration not stated)
24 | 91 to 92.5 °C | CC(=O)N1CCCSC1=C[N+](=O)[O-]
25 | 145 to 146 °C | O=C(NCCc1ccccn1)c1cnc2cc3c(cc2c1Cl)OCO3
26 | 188 to 189 °C | COc1cc(NS(=O)(=O)c2cccs2)c2[nH]c(C3=NCCS3)cc2c1
27 | 136 °C | O=C(NC/C=C/c1ccccc1)c1ccc(OC(F)(F)F)cc1
28 | 64 to 68 °C | COC(OC)c1cc(=O)c2ccccc2o1
29 | 218 to 219 °C | COC(=O)c1ccc(COc2ccc3cc(-c4ccc(-c5ccccc5)n4-c4ccccc4)ccc3c2)cc1
30 | 91 to 94 °C | Cc1cccc(CC(Nc2ccc3c(c2)C(=O)OC3)C(=O)NC(C#N)CCCCc2cccc(C(=O)O)c2)c1 (configuration not stated)
31 | 86 to 87 °C | CO[C@H]1O[C@@H](C)[C@@H]2C(=O)[C@H]3CCCC[C@@H]3C[C@H]12
32 | 237 to 238 °C | CCCCc1ncc(C=C2C(=O)Nc3ccccc32)n1Cc1ccc(C(=O)O)cc1
33 | 144 to 146 °C | COc1cc2ncnc(N3CCN(C(=O)Nc4ccc(C(=O)C(F)(F)F)cc4)CC3)c2cc1OC
34 | 57 °C | CS(=O)(=O)c1ccccc1S
35 | 210 to 211 °C | CC(Cl)(Cl)C(NC(=O)c1ccc(C(F)(F)F)cc1)NC(=NC#N)Nc1ccc(Cl)nc1 (configuration not stated)
36 | 84 to 86 °C | O=C1C=CC(O)(C(F)(F)F)C=C1
37 | 119 to 121 °C | CCN(CC)CCNC(=O)c1cc(Cl)c(N)cc1OCCCN
38 | 203 to 207 °C | Cc1nc(-c2cccc(-c3nc4sccn4c3-c3ccnc(N[C@@H]4CCCNC4)n3)c2)no1
39 | 129 °C | COc1cccc2c1[C@@H](Oc1cc(C(=O)N(C)C)cn3c(C)c(C)nc13)[C@H](O)C2 (relative stereo)
40 | 144 to 145 °C | Cn1cc(-c2ccc3c(ccn3-c3ccc(F)cc3)c2)cn1
41 | 145 °C | O=C(c1c(F)cccc1F)n1c(-c2c(F)cccc2F)nc2ccccc21
42 | 135 to 137 °C | O=C(NCCCN1CCN(Cc2ccc(Cl)cc2)CC1)Nc1ccccc1

Row | melting point | SMILES
43 | 173 °C | COC(=O)C(c1ccc(Cl)cc1)c1c(Cl)cc(-n2ncc(=O)n(C)c2=O)cc1Cl (configuration not stated)
44 | 50 to 51 °C | CC(C)(C)c1ncc(Br)cn1
45 | 228 to 230 °C | CNc1nc(-c2cncc(Br)c2)c2cc(OC)c(OC)cc2n1
46 | 135 to 136 °C | CC(C)(CCCc1cccnc1)NC(=O)C=CC=C(c1cccc(F)c1)c1cccc(F)c1
47 | 130 to 133 °C | CN(C)C=CC(=O)c1ccc(OCC(O)CN2CCN(c3cccc(Cl)c3)CC2)cc1 (configuration not stated)
48 | 252 to 255 °C | O=C(Nc1ccc(CN2C(=O)[C@H]3CCC[C@H]3N(C(=O)CN3C(=O)c4ccccc4C3=O)c3ccccc32)cc1)c1ccccc1 (relative stereo)
49 | 188 to 193 °C | CCOC(=O)c1cnn(-c2ccc(-n3cc(OC)c(=O)c(-c4ccnn4-c4ccccc4)n3)c(F)c2)c1O
50 | 216 to 217 °C | Cc1cccc(N(c2ccccc2)c2ccc3c(c2)C(CCCO)(CCCO)c2cc(N(c4ccccc4)c4cccc(C)c4)ccc2-3)c1
51 | 29 to 32 °C | COC(=O)C(Cc1ccccc1)Oc1ccc2cc(CN(C)C(=O)c3oc4ccccc4c3CCc3ccccc3)ccc2c1Br (configuration not stated)
52 | 210 to 212 °C | O=C(Nc1ccc(-c2ncno2)cc1)Oc1ccc([N+](=O)[O-])cc1
53 | 190 to 192 °C | COc1c(N2CCC(O)C(CC(C)C)C2)c(F)cc2c(=O)c(C(=O)O)cn(C3CC3)c12 (configuration not stated)
54 | 79 to 81 °C | C[C@@H]1CC=C(S(=O)(=O)c2ccccc2)[C@H](O)C1
55 | 95 to 97 °C | c1ccc(CCNc2nc3ccccc3c3[nH]c(C4CCCC4)nc23)cc1
56 | 197 to 200 °C | O=C(Nc1ccccc1)N1C(=O)[C@H](O)[C@@H]1c1ccccc1
57 | 167 to 169 °C | Cc1cc2[nH]cc(CSCC(=O)N3CC=C(c4ccccc4)CC3)c2cc1C
58 | 69 to 70 °C | CCOC(=O)C1CCCn2c(cc3ccccc32)C1 (configuration not stated)
59 | 175 to 177 °C | CC(C)c1ccccc1NC(=N)Nc1cccc2ccccc12
60 | 175 to 176 °C | Cc1cc2c(-c3ccccc3Cl)c(NC(=O)Nc3cccc(C(F)(F)F)c3)c(=O)n(C)c2cc1C
61 | 95 to 98 °C | CCCCOC(=O)C(CC(C)C)NC(=O)c1cc([N+](=O)[O-])cc([N+](=O)[O-])c1 (configuration not stated)
62 | 216 to 218 °C | CCCc1nc2c(N)nc3cccnc3c2n1CCCCCC(N)=O

Row | SMILES | melting point
63 | OC(CN1CC=C(c2c[nH]c3ccccc23)CC1)C1COc2ccccc2O1 (configuration not stated) | 177 °C
64 | CC[C@H]1[C@@H](O)[C@H](C)C(=O)N1c1ccc(C#N)c(OC)c1 | 78 to 81 °C
65 | CN(C)C1(c2ccccc2)CCC(CC(=O)N2CCC(c3c[nH]c4ccccc34)C2)CC1 (configuration not stated) | 98 to 100 °C
66 | NNC(=O)c1nn(Cc2ccc(Cl)cc2Cl)c2ccccc12 | 161 to 162 °C
67 | COC(=O)C(C)(C)Cc1c(C(=O)C2CC2)c2cc(OCc3ccc4ccccc4n3)c(C(=O)C3CC3)cc2n1Cc1ccc(Cl)cc1 | 166 to 167 °C
